According to US20240059694A1, “COMPOUND CONTAINING 1,3-BENZODIOXOL STRUCTURE AND PREPARATION METHOD AND USE THEREOF” (priority 2021, published 2024):

Columns and labels:
[1] = tested on: Daudi cells; test: Proliferation inhibition of Daudi cells (Cell Titer-Glo, 72 h); format: cell-based; details: 72 h drug action, class key in μM
Experimental: (§1) Experimental procedure: A certain number of cells in the logarithmic growth phase were inoculated in a 96-well plate and cultured at 37° C. before adding drugs. After 72 h of drug action, after the 96-well cell plate was equilibrated to room temperature, 40 μL of Cell Titer-Glo® reagent was added to each well; each plate was then shaken for 2 min and allowed to stand for 10 min, the chemiluminescent signal was detected with an MD SpectraMax Paradigm microplate reader. Data analysis: The formula is as follows: […]
(§2) Max signal: DMSO signal; Min signal: medium signal, IC50 was calculated using GraphPad Prism 5.

[2] = tested on: BaF3-TEL-JAK3 cells; test: Proliferation inhibition of BaF3-TEL-JAK3 cells (Cell Titer-Glo, 72 h); format: cell-based; details: 72 h drug action, class key in μM
Experimental: as §1, §2

[3] = target: BTK (Homo sapiens (Human), UniProt Q06187); test: BTK kinase inhibitory activity experiment (Caliper EZ reader conversion rate); format: biochemical; details: for IC50: in vitro kinase assay, 20 min incubation, class key in μM; for inhibitory activity on BTK (in words): summary of Table 1
Experimental: (§3) Experimental method: The 384-well plate was divided into compound wells (starting at 10 μM, diluted three times to produce 10 concentrations), positive control wells and negative control wells; kinase solution was added to compound wells and positive control wells, and 1×kinase buffer was added to negative control wells; the solution is next centrifuged for 30 seconds and incubated at room temperature for 10 min. Add 15 μL of the mixed solution of ATP and substrate, shake and mix well after centrifugation and incubate at room temperature (30 min for JAK3, 20 min for BTK). Add stop detection solution to stop the reaction, and read the conversion rate with Caliper EZ reader, Data analysis: The formula is as follows: […]
(§4) where Conversion %_sample is the conversion rate reading of the sample Conversion %_min is the average value of the negative control wells representing the conversion rate reading of the wells without enzyme addition; and Conversion %_max is the average value of the positive control wells representing the conversion rate reading of the wells without adding the compound. Fit the dose-response curve: Taking the log value of the concentration as the X-axis, and the percentage inhibition rate as the Y-axis, the dose-response curve was fitted using the log (inhibitor) vs. response-Variable slope of the software GraphPad Prism 5, so as to obtain the IC50 value of each compound on the enzyme activity.

[4] = target: JAK3 (Homo sapiens (Human), UniProt P52333); test: JAK3 kinase inhibitory activity experiment (Caliper EZ reader conversion rate); format: biochemical; details: for IC50: in vitro kinase assay, 30 min incubation, class key in μM; for inhibitory activity on JAK3 (in words): summary of Table 1
Experimental: as §3, §4

BTK, sequence (Q06187 whole entry): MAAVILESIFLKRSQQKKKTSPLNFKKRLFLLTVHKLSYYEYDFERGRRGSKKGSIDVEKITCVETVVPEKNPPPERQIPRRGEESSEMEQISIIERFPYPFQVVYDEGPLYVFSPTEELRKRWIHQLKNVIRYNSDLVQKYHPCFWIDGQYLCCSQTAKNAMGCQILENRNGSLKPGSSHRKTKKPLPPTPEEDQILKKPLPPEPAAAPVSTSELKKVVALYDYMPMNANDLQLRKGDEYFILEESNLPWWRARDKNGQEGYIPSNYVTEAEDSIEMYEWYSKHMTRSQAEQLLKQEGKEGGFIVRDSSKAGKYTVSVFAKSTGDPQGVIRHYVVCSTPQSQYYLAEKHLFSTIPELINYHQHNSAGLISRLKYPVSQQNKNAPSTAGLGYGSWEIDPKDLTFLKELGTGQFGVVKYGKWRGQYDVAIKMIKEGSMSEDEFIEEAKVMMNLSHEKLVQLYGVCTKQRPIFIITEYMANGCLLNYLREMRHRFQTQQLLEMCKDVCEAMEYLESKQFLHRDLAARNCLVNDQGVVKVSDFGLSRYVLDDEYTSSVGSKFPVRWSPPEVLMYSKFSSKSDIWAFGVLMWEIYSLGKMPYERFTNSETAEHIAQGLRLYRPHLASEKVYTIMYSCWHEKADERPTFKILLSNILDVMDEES
JAK3, sequence (P52333 whole entry): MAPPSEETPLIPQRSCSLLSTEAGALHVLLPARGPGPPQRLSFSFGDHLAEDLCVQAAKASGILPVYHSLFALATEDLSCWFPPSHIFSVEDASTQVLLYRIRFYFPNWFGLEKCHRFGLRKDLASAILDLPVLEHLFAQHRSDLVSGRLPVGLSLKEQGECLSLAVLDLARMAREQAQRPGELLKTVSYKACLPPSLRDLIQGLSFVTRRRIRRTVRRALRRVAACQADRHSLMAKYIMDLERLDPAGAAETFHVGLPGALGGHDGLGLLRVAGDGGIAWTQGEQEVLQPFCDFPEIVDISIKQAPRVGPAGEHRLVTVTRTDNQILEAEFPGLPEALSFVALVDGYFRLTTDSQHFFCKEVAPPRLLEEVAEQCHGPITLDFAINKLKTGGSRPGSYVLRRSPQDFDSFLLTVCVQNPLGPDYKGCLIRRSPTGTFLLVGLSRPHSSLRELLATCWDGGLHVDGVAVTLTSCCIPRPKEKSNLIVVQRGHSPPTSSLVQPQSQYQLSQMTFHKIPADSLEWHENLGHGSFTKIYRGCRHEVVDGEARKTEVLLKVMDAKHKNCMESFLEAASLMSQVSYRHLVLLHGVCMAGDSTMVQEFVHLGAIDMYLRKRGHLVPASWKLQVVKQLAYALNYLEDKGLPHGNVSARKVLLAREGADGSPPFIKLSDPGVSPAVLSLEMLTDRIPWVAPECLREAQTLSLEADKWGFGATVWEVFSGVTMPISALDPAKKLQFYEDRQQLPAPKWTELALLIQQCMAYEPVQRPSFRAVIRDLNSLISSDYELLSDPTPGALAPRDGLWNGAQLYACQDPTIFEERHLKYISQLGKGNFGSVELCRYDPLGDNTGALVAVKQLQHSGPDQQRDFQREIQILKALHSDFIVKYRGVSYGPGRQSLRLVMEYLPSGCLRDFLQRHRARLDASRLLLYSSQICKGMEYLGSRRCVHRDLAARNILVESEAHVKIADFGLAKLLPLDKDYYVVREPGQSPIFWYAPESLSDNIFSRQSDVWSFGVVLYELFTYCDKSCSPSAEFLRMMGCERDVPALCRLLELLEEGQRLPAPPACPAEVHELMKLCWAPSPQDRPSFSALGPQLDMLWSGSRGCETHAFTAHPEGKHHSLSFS

SMILES | IC50 [1] | IC50 [2] | IC50 [3] | IC50 [4] | inhibitory activity on BTK (in words) [3] | inhibitory activity on JAK3 (in words) [4]
C=CC(=O)N1CCC[C@@H](n2nc(-c3ccc(NC(=O)c4ccc(N(C)C)cc4)c4c3OCO4)c3c(N)ncnc32)C1 [I-13, (R)-N-(7-(1-(1-acryloylpiperidin-3)-4-amino-1H-pyrazolo[3,4-d]pyrimidin-3-)benzo[d][1,3]dioxoheterocyclopenten-4)-4-(dimethylamino)benzamide] | 0.5 to 1 µM | 0.01 to 0.5 µM | 0.001 to 0.05 µM | 0.001 to 0.05 µM | – | –
C=CC(=O)N1CCC[C@@H](n2cc(-c3ccc(NC(=O)c4cccc5ccccc45)c4c3OCO4)c3c(N)ncnc32)C1 [I-21, (R)-N-(7-(7-(1-acryloylpiperidin-3-yl)-4-amino-7H-pyrrolo[2,3-d]pyrimidin-5-yl)benzo[d][1,3]dioxoheterocyclopenten-4-)-1-naphthalenecarboxamide] | 0.5 to 1 µM | 0.5 to 1 µM | 0.001 to 0.05 µM | 0.001 to 0.05 µM | – | –
C=CC(=O)N1CCC[C@@H](n2nc(-c3ccc(NC(=O)c4ccccn4)c4c3OCO4)c3c(N)ncnc32)C1 [I-4, (R)-N-(7-(1-(1-acryloylpiperidin-3)-4-amino-1H-pyrazolo[3,4-d]pyrimidin-3-yl)benzo[d][1,3]dioxoheterocyclopenten-4)pyridine-2-formamide] | 0.5 to 1 µM | 0.5 to 1 µM | 0.001 to 0.05 µM | 0.05 to 0.5 µM | – | –
C=CC(=O)N1CCC[C@@H](n2nc(-c3ccc(NC(=O)c4sc5ccccc5c4Cl)c4c3OCO4)c3c(N)ncnc32)C1 [I-16, (R)-N-(7-(1-(1-acryloylpiperidin-3)-4-amino-1H-pyrazolo[3,4-d]pyrimidin-3-yl)benzo[d][1,3]dioxoheterocyclopenten-4-)-3-chlorobenzo[b]thiophene-2-formamide] | 0.01 to 0.5 µM | 0.01 to 0.5 µM | 0.001 to 0.05 µM | 0.001 to 0.05 µM | – | –
C=CC(=O)N1CCC[C@@H](n2nc(-c3ccc(NC(=O)c4ccc(N(CC)CC)cc4)c4c3OCO4)c3c(N)ncnc32)C1 [I-15, (R)-N-(7-(1-(1-acryloylpiperidin-3)-4-amino-1H-pyrazolo[3,4-d]pyrimidin-3-)benzo[d][1,3]dioxoheterocyclopenten-4)-4-(diethylamino)benzamide] | 0.5 to 1 µM | 0.01 to 0.5 µM | 0.001 to 0.05 µM | 0.001 to 0.05 µM | – | –
C=CC(=O)N1CCC[C@@H](n2nc(-c3ccc(NC(=O)c4ccccc4)c4c3OCO4)c3c(N)ncnc32)C1 [I-1, (R)-N-(7-(1-(1-acryloylpiperidin-3-yl)-4-amino-1H-pyrazolo[3,4-d]pyrimidin-3-)benzo[d][1,3]dioxoheterocyclopenten-4-)benzamide] | 0.5 to 1 µM | 0.5 to 1 µM | 0.001 to 0.05 µM | 0.05 to 0.5 µM | – | –
C=CC(=O)N1CCC[C@@H](n2nc(-c3ccc(NC(=O)c4ccc5ccccc5c4)c4c3OCO4)c3c(N)ncnc32)C1 [I-18, (R)-N-(7-(1-(1-acryloylpiperidin-3)-4-amino-1H-pyrazolo[3,4-d]pyrimidin-3-)benzo[d][1,3]dioxoheterocyclopenten-4)-2-naphthalenecarboxamide] | 0.5 to 1 µM | 0.5 to 1 µM | 0.001 to 0.05 µM | 0.001 to 0.05 µM | – | –
C=CC(=O)N1CCC[C@@H](n2nc(-c3ccc(NC(=O)c4cccc5c4CCCC5)c4c3OCO4)c3c(N)ncnc32)C1 [I-20, (R)-N-(7-(1-(1-acryloylpiperidin-3-yl)-4-amino-1H-pyrazolo[3,4-d]pyrimidin-3-)benzo[d][1,3]dioxoheterocyclopenten-4-)-5,6,7,8-tetrahydronaphthalene-1-carboxamide] | 0.5 to 1 µM | 0.5 to 1 µM | 0.001 to 0.05 µM | 0.001 to 0.05 µM | – | –
C=CC(=O)N1CCC[C@@H](n2nc(-c3ccc(NC(=O)c4cccc(Cl)c4)c4c3OCO4)c3c(N)ncnc32)C1 [I-6, (R)-N-(7-(1-(1-acryloylpiperidin-3)-4-amino-1H-pyrazolo[3,4-d]pyrimidin-3-)benzo[d][1,3]dioxoheterocyclopenten-4)-3-chlorobenzamide] | 0.5 to 1 µM | 0.5 to 1 µM | 0.001 to 0.05 µM | 0.001 to 0.05 µM | excellent inhibitory activity | excellent inhibitory activity
C=CC(=O)N1CCC[C@@H](n2nc(-c3ccc(NC(=O)c4cccc5ccccc45)c4c3OCO4)c3c(N)ncnc32)C1 [I-17, (R)-N-(7-(1-(1-acryloylpiperidin-3-yl)-4-amino-1H-pyrazolo[3,4-d]pyrimidin-3-)benzo[d][1,3]dioxoheterocyclopenten-4-)-1-naphthalenecarboxamide] | 0.5 to 1 µM | 0.5 to 1 µM | 0.001 to 0.05 µM | 0.001 to 0.05 µM | – | –
C=CC(=O)N1CCC[C@@H](n2nc(-c3ccc(NC(=O)c4ccc(C(F)(F)F)cc4)c4c3OCO4)c3c(N)ncnc32)C1 [I-9, (R)-N-(7-(1-(1-acryloylpiperidin-3)-4-amino-1H-pyrazolo[3,4-d]pyrimidin-3)benzo[d][1,3]dioxoheterocyclopenten-4)-4-trifluoromethylbenzamide] | – | – | 0.001 to 0.05 µM | 0.05 to 0.5 µM | – | –
C=CC(=O)N1CCC[C@@H](n2nc(-c3ccc(NC(=O)c4ccc(OC)c(OC)c4)c4c3OCO4)c3c(N)ncnc32)C1 [I-12, (R)-N-(7-(1-(1-acryloylpiperidin-3)-4-amino-1H-pyrazolo[3,4-d]pyrimidin-3-yl)benzo[d][1,3]dioxoheterocyclopenten-4)-3,4-dimethoxybenzamide] | – | – | 0.001 to 0.05 µM | 0.05 to 0.5 µM | – | –
C=CC(=O)N1CCC[C@@H](n2nc(-c3ccc(NC(=O)c4ccc(OC)cc4)c4c3OCO4)c3c(N)ncnc32)C1 [I-10, (R)-N-(7-(1-(1-acryloylpiperidin-3)-4-amino-1H-pyrazolo[3,4-d]pyrimidin-3-)benzo[d][1,3]dioxoheterocyclopenten-4)-4-methoxy benzamide] | – | – | 0.001 to 0.05 µM | 0.001 to 0.05 µM | excellent inhibitory activity | excellent inhibitory activity
C=CC(=O)N1CCC[C@@H](n2cc(-c3ccc(NC(=O)c4ccc5ccccc5c4)c4c3OCO4)c3c(N)ncnc32)C1 [I-22, (R)-N-(7-(7-(1-acryloylpiperidin-3-yl)-4-amino-7H-pyrrolo[2,3-d]pyrimidin-5-yl)benzo[d][1,3]dioxoheterocyclopenten-4-)-2-naphthalenecarboxamide] | – | – | 0.001 to 0.05 µM | 0.001 to 0.05 µM | – | –
C=CC(=O)N1CCC[C@@H](n2nc(-c3ccc(NS(=O)(=O)c4ccc(OC)cc4)c4c3OCO4)c3c(N)ncnc32)C1 [I-25, (R)-N-(7-(1-(1-acryloylpiperidin-3)-4-amino-1H-pyrazolo[3,4-d]pyrimidin-3-)benzo[d][1,3]dioxoheterocyclopenten-4)-4-methoxybenzenesulfonamide] | – | – | 0.001 to 0.05 µM | 0.05 to 0.5 µM | – | –
C=CC(=O)N1CCC[C@@H](n2nc(-c3ccc(NC(=O)c4cccc(CN5CCOCC5)c4)c4c3OCO4)c3c(N)ncnc32)C1 [I-34, (R)-N-(7-(1-(1-acryloylpiperidin-3-yl)-4-amino-1H-pyrazolo[3,4-d]pyrimidin-3-)benzo[d][1,3]dioxoheterocyclopenten-4-)-3-(morpholinomethyl)benzamide] | – | – | 0.001 to 0.05 µM | > 0.5 µM | – | –
